In PubChem BioAssay (NCI):
Values joined by “and” are separate entries in the source; they are usually repeats but may differ in a detail not shown here. Equal values may be shown once.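 Where inhibition never reached the appropriate level, the endpoint shown equals the highest concentration tested. Otherwise, values were interpolated linearly from a five-concentration, 48-hour dose response in 96-well plates. GI50: concentration for 50% inhibition of growth. TGI: concentration producing complete growth inhibition.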

How the values were obtained:
Assay in all cases: NCI-60 cell line screen, 48 h
[1] = system: SNB-78 CNS
[2] = system: DLD-1 colon
[3] = system: BT-549 breast
[4] = system: CAKI-1 renal
[5] = system: SK-MEL-28 melanoma
[6] = system: SNB-19 CNS
[7] = system: SK-MEL-2 melanoma
[8] = system: RPMI-8226 leukemia
[9] = system: UACC-257 melanoma
[10] = system: UACC-62 melanoma
[11] = system: MDA-N
[12] = system: IGROV1 ovarian
[13] = system: MOLT-4 leukemia
[14] = system: ACHN renal
[15] = system: SNB-75 CNS
[16] = system: A549 NSCLC
[17] = system: OVCAR-5 ovarian
[18] = system: SW-620 colon
[19] = system: HOP-18 NSCLC
[20] = system: SN12C renal
[21] = system: 786-0 renal
[22] = system: CCRF-CEM leukemia
[23] = system: MALME-3M melanoma
[24] = system: K-562 leukemia
[25] = system: HCC-2998 colon
[26] = system: TK-10 renal
[27] = system: MDA-MB-231 breast
[28] = system: T-47D breast
[29] = system: PC-3 prostate
[30] = system: HT29 colon
[31] = system: EKVX NSCLC
[32] = system: DU-145 prostate
[33] = system: HS 578T breast
[34] = system: HOP-62 NSCLC
[35] = system: SF-539 CNS
[36] = system: COLO 205 colon
[37] = system: NCI-H522 lung
[38] = system: U251 CNS
[39] = system: RXF 393 renal
[40] = system: A498 renal
[41] = system: HOP-92 NSCLC
[42] = system: NCI/ADR-RES ovarian
[43] = system: OVCAR-3 ovarian
[44] = system: KM12 colon
[45] = system: HCT-15 colon
[46] = system: M14 melanoma
[47] = system: OVCAR-4 ovarian
[48] = system: MCF7 breast
[49] = system: SF-268 CNS
[50] = system: SR leukemia
[51] = system: LOX IMVI melanoma
[52] = system: UO-31 renal
[53] = system: SF-295 CNS
[54] = system: SK-MEL-5 melanoma
[55] = system: SK-OV-3 ovarian
[56] = system: OVCAR-8 ovarian
[57] = system: NCI-H460 lung
[58] = system: NCI-H226 lung
[59] = system: NCI-H23 lung
[60] = system: MDA-MB-435
[61] = system: HCT-116 colon

SMILES: COc1ccc(/C=C\c2cc(OC)c(OC)c(OC)c2)cc1OP(=O)(O)O
- TGI [1]: > 100 µM and 50 µM
- TGI [2]: > 100 µM and 50 µM
- TGI [3]: > 100 µM
- TGI [4]: > 67.5 µM and 50 µM and > 100 µM
- TGI [5]: > 100 µM and 50 µM
- TGI [6]: > 100 µM
- TGI [7]: 0.0169 µM and 0.0953 µM
- TGI [8]: 25.1 µM and 50 µM and > 100 µM
- TGI [9]: 88.9 µM and 50 µM and > 100 µM
- TGI [10]: > 100 µM and 50 µM and > 64.3 µM
- GI50 [11]: < 0.0001 µM
- TGI [12]: > 100 µM and 50 µM
- TGI [13]: > 100 µM and 50 µM
- TGI [14]: > 100 µM and 50 µM and > 65 µM
- TGI [15]: 50 µM and > 100 µM
- TGI [16]: > 100 µM and 50 µM
- TGI [17]: > 100 µM
- TGI [18]: > 100 µM and 50 µM
- GI50 [19]: > 100 µM
- TGI [19]: > 100 µM
- TGI [20]: > 100 µM and 50 µM
- TGI [21]: > 100 µM
- TGI [22]: > 100 µM
- TGI [23]: > 100 µM and 24.5 µM and > 89 µM
- TGI [24]: 50 µM and > 100 µM
- GI50 [25]: 0.929 µM
- TGI [26]: > 100 µM
- TGI [27]: > 12.1 µM
- GI50 [28]: 20.7 µM
- TGI [29]: > 100 µM
- GI50 [30]: 0.486 µM and 3.89 µM
- TGI [31]: > 100 µM and 50 µM
- GI50 [32]: 0.609 µM
- TGI [32]: 0.356 µM and 0.371 µM
- GI50 [33]: 13.2 µM
- GI50 [34]: 11.9 µM
- TGI [34]: > 100 µM and 50 µM and > 76.1 µM

SMILES: NC(N)=N/N=C(\c1ccc(Cl)cc1)C1CC1
- TGI [35]: 32.3 µM
- TGI [36]: 31 µM
- TGI [37]: 31.3 µM
- TGI [38]: 27.2 µM
- TGI [3]: 49.6 µM
- TGI [39]: > 100 µM
- TGI [4]: > 100 µM
- TGI [5]: 38.2 µM
- TGI [6]: > 100 µM
- TGI [40]: 32.3 µM
- TGI [7]: 34.5 µM
- TGI [8]: 37.9 µM
- TGI [9]: 28 µM
- TGI [41]: 62.6 µM
- TGI [10]: 29.3 µM
- TGI [11]: 30.8 µM
- TGI [12]: 31.8 µM
- TGI [42]: 61.2 µM
- TGI [43]: 50.4 µM
- TGI [44]: 35.8 µM
- TGI [14]: 57.7 µM
- TGI [45]: 40.2 µM
- TGI [15]: 68.9 µM
- TGI [16]: > 100 µM
- TGI [46]: 30 µM
- TGI [47]: > 100 µM
- TGI [17]: 39.3 µM
- TGI [18]: 35.2 µM
- TGI [48]: 32.5 µM
- TGI [20]: 42.3 µM
- TGI [21]: 32.5 µM
- TGI [49]: > 100 µM
- TGI [50]: 29.1 µM
- TGI [51]: 30 µM
- TGI [23]: 29 µM
- TGI [52]: 79.9 µM
- TGI [24]: 55.7 µM
- TGI [25]: 19.4 µM
- TGI [53]: 48.3 µM
- TGI [26]: 29.9 µM
- TGI [54]: 29 µM
- TGI [27]: 34.9 µM
- TGI [28]: 64.4 µM
- TGI [55]: 78.7 µM
- TGI [29]: 34.9 µM
- TGI [30]: 32.2 µM
- TGI [56]: 40.4 µM
- TGI [57]: 29.9 µM
- TGI [58]: 33.2 µM
- TGI [31]: 83 µM
- TGI [32]: 57.4 µM
- TGI [59]: 73.1 µM
- TGI [60]: 34.7 µM
- TGI [33]: 78.3 µM
- TGI [34]: 37.7 µM
- TGI [61]: 31 µM
